In a melting point compilation (Tetko et al.; mined from patent text by program, amines drawn as free bases though some values may be those of a salt):

In the case of `CSC(N)=C(Cc1ccccc1)[N+](=O)[O-]`, the melting point is reported as 112 °C. In the case of `O=[N+]([O-])c1ccccc1NC(CO)c1c(Cl)cccc1Cl` (stereo not given), the melting point is reported as 128 °C. For `NS(=O)(=O)c1cc2c(cc1Cl)C(=O)NC2=O`, the melting point was 121 to 125 °C. With `O=C(N[C@H]1CCN(CCc2ccc(F)cc2)C1)C(c1ccccc1F)c1ccccc1F` the melting point was 107 to 108 °C. With `O=C1Nc2ccc(F)c(F)c2[C@@](C#CC2CC2)(C(F)(F)F)O[C@H]1C1CC1` (relative stereo) the melting point was 222 °C. With `O=CN(CCOc1ccc2ccccc2c1)c1ccc(C(=O)C(=O)O)cc1` the melting point was 155 to 156 °C. `Cc1ccc2c(c1)c1c(OCC#N)cccc1n2Cc1ccccc1` gave a melting point of 188 °C. With `CN1C(=O)c2ccccc2C(C(=O)O)C1c1ccc(OCc2ccccc2)c(OCc2ccccc2)c1` (stereo not given) the melting point was 170 to 172 °C. For `COc1cc2c(cc1OC(=O)c1ccccc1)C1Cc3c(Cl)cc(OC)c(OC(=O)c4ccccc4)c3CN1CC2` (stereo not given), the melting point was 152 to 154 °C. In the case of `CC(C)n1nc(-c2nc(N)c(C(N)=O)nc2-c2ccccc2)ccc1=O`, the melting point is reported as 217 to 220 °C. In the case of `CCNC1CCc2[nH]c3ccc(OCc4ccccc4)cc3c2C1` (stereo not given), the melting point is reported as 117 to 118 °C. For `CC(C)(C)OC(=O)NC(Cc1c[nH]c2ccccc12)C(=O)OCCl` (stereo not given), the melting point was 155 to 157 °C. Compound `OC(CCN1CCN(c2ccc(F)cc2)CC1)c1cnn2c1CCCC2` (stereo not given) has a melting point of 130 to 131 °C. Work on `Cc1cc(CNC(=O)c2cc(-n3cnn(Cc4ccc(F)cc4)c3=O)n[nH]2)no1` yielded a melting point of 276 to 277 °C. Compound `Oc1ccc(O)c2c1CC(O)C(O)C2` (stereo not given) has a melting point of 221 to 224 °C. In the case of `O=C(O)c1cn(CCO)nc1[N+](=O)[O-]`, the melting point is reported as 147 to 149 °C. Compound `Cc1cccc2c(=O)nc(-c3cccc(C(=O)OC(C)(C)C)n3)sc12` has a melting point of 204 to 205 °C. Compound `COC(=O)c1ccc(-c2nc3ccc(C(=O)O)cc3[nH]2)cc1` has a melting point of 308 to 309 °C. For `C=C(C)COc1ccc(CC(=O)OC)cc1[N+](=O)[O-]`, the melting point was 30 to 31.5 °C. Compound `NC(=O)C1CCn2c(cc3ccccc32)C1` (stereo not given) has a melting point of 165 to 168 °C. `N=C(NN)c1cccc(Cc2c[nH]cn2)c1O` gave a melting point of 188 °C. Compound `Fc1cccc(OC2CN(C3CCC(c4c[nH]c5ccccc45)CC3)C2)c1` (stereo not given) has a melting point of 114 to 117 °C. Work on `CCOc1ccc(C2(C(=O)O)CC2(C)C)cc1` (stereo not given) yielded a melting point of 104 to 105 °C. With `Cc1cc(C)nc(OC(C(=O)O)C(C)(C)C)n1` (stereo not given) the melting point was 167 to 169 °C. `CCC(=C(c1ccc(O)cc1)c1ccc(OCCN(C)C)cc1)c1ccccc1` showed a melting point of 114 to 117 °C. Compound `NC(=O)c1ccc2nc3sc(-c4ccccc4)cc3c(=O)n2c1` has a melting point of 348 to 352 °C. `O=C1c2cc3nn[nH]c(=O)c3cc2OC2CCCN12` (stereo not given) showed a melting point of 253 °C. With `Cc1coc(NC(=O)C2c3ccccc3Oc3ccccc32)n1` the melting point was 219 to 222 °C. In the case of `COc1ccc(CCNc2nccc(-c3cccc(NC(=O)CCN(C)C)c3)n2)cc1OC`, the melting point is reported as 107 to 108 °C. For `N#Cc1cc(Cc2ccc(Cl)cc2)ccc1N`, the melting point was 91.5 to 93 °C. With `N#CC(N)=C(C#N)N=C=CCc1cnn(-c2c(Cl)cc(C(F)(F)F)cc2Cl)n1` the melting point was 207 to 209 °C. `Cc1cccc2ncc(C(=O)NCc3ccc(Cl)cc3)c(O)c12` gave a melting point of 205 to 206 °C. Compound `O=C(O)CCc1nc(-c2cc3ccccc3o2)cs1` has a melting point of 203 to 205 °C. `CCOC(=O)C1CCN(C(=O)CCCOc2ccc3nc4[nH]c(=O)[nH]c4cc3c2)CC1` showed a melting point of 251 to 253 °C. In the case of `O=S1(=O)CCc2nn(-c3ccc(Cl)cc3)c(Br)c2C1`, the melting point is reported as 138 to 145 °C. Compound `NC(=O)c1ccc(OCC(O)CCCl)cc1` (stereo not given) has a melting point of 150 to 153 °C. Compound `O=S(=O)(Cl)C=Cc1c(Cl)cccc1Cl` has a melting point of 88 to 90 °C. Compound `C[C@H](O)C(=O)N[C@@H]1C(=O)Nc2c(F)cccc2O[C@@H]1C` has a melting point of 221 to 225 °C. For `Nc1nc(O)c2c(n1)NCC(CN(C=O)Cc1ccc(C(=O)N[C@@H](CCC(=O)O)C(=O)O)cc1)C2` (stereo not given in full), the melting point was 178 °C. With `CCOC(=O)N1CCN(c2cc3nc(C(C)(C)C)sc3cc2[N+](=O)[O-])CC1` the melting point was 100 to 102 °C. In the case of `Cc1cnc(Cl)c(OCC(O)CNC(C)C)n1` (stereo not given), the melting point is reported as 109 to 110 °C. Work on `COc1c(Br)cc2c3c(cccc13)C(=O)N(O)C2=O` yielded a melting point of 223 to 227 °C. For `COc1ccc(C2=NN(c3ccccc3)C(c3ccc([N+](=O)[O-])cc3)C2)cc1` (stereo not given), the melting point was 168 to 173 °C. `O=C1NCCNN1c1cc(C(F)(F)F)cc(Cl)n1` showed a melting point of 191 to 192 °C. `C=Cc1ccc2c(c1)c(=O)c(C(=O)NCc1ccc(Cl)cc1)cn2C` showed a melting point of 193 to 196 °C. With `O=C(NCC(F)F)/C(=C/c1ccc(OC(F)(F)F)cc1)NC(=O)c1ccc(OCCC(F)(F)F)cc1` the melting point was 142 to 143 °C. Compound `O=C(Nc1ccc2[nH]ncc2c1)c1ccccc1NCC1CCOCC1` has a melting point of 174 °C. Compound `CC1(C(=O)NC(CCC(=O)O)Cc2ccccc2)Cc2c([nH]c3ccccc23)CN1C(=O)OC1C2CC3CC(C2)CC1C3` (stereo not given) has a melting point of 133 to 138 °C. With `CN(C)Cc1nc(C(N)=O)nn1-c1ccc(Cl)cc1C(=O)c1ccccc1Cl` the melting point was 177 to 180 °C. `O=C1N(Cc2ccc3ccccc3c2)c2ccccc2N=C2CCCC12Cc1ccc2ccccc2c1` (stereo not given) gave a melting point of 191 to 193 °C. In the case of `COc1ccc(-c2nc3ccc(C(C)(C)CNC=O)cc3[nH]2)cn1`, the melting point is reported as 217 to 221 °C. For `C[C@@H]1O[C@](/C=C/C2CC2)(C(F)(F)F)c2c(ccc(F)c2F)NC1=O` (relative stereo), the melting point was 192 to 193 °C. `Nc1ccc(C2=NNC(=O)C3CC23)cc1` (stereo not given) showed a melting point of 230 to 231 °C. `CC(C)(O)C#Cc1ncn2c1[C@@H]1CCCN1C(=O)c1c(Br)cccc1-2` gave a melting point of 227 to 228 °C. In the case of `COc1ccc(-n2cc(C3(O)CN4CCC3CC4)nn2)cc1` (stereo not given), the melting point is reported as 174 °C. In the case of `O=c1nc(-c2ccnc(Cl)c2)sc2ccccc12`, the melting point is reported as 178 °C. Compound `CCN(CC)S(=O)(=O)c1cc2c(ccc3nc(N)[nH]c(=O)c32)cc1Br` has a melting point of over 250 °C. `COC(=O)c1ccc(Cl)cc1NC(=O)Cc1ccsc1` gave a melting point of 96 to 97 °C. For `CCOC(=O)c1c2n(c3cc(N4CCNCC4)c(F)cc3c1=O)C(C)S2` (stereo not given), the melting point was 224 °C. `Cc1cc(-c2ccc(S(C)(=O)=O)cc2)n(-c2ccc(-c3ccoc3)cc2)c1` showed a melting point of 154 to 156 °C. Compound `COC(=O)c1ccc(O)nc1C1=NC(C)(C(C)C)C(=O)N1` (stereo not given) has a melting point of 186 to 191 °C. In the case of `CC(C)(C)OC(=O)Nc1cc(N2CCOCC2)c(I)cc1N`, the melting point is reported as 139 to 143 °C. Work on `CC(=O)OC1CSC(Oc2ccc3ccn(C(=O)OC(C)(C)C)c3c2)C(OC(C)=O)C1OC(C)=O` (stereo not given) yielded a melting point of 147 to 158 °C. `CN(NC(=O)c1ccccc1CO)C(=S)Nc1cccc(F)c1` showed a melting point of 136 to 137 °C. `N#Cc1cnc2c(c1Nc1cccc(Br)c1)C=C1N=CN=C1C2` gave a melting point of 286 to 288 °C. `O=[N+]([O-])c1ccc2oc(CBr)cc2c1` gave a melting point of 96 to 98 °C. Work on `Cc1cccnc1-n1ccnc1S(=O)Cc1ccccc1N` (stereo not given) yielded a melting point of 112 to 114 °C. Compound `CCOC(=O)c1c(CBr)nc2cc(OC)c(OC)cc2c1-c1ccc(OC)c(OC)c1` has a melting point of 135 to 136 °C. In the case of `Cc1oc(-c2ccccc2)nc1COc1ccc2cc(CCCCC#N)oc2c1`, the melting point is reported as 87 to 88 °C. Work on `COc1ccc2ccc(N3C(=O)c4ccccc4C3OCC(=O)NC3CCCCC3)nc2n1` (stereo not given) yielded a melting point of 175 °C. With `CCNC(=O)c1nc(Cl)c(Cl)[nH]1` the melting point was 146 °C. `CCC(CC)(CC(=O)Nc1cccc(OCc2ccc3ccc(F)cc3n2)c1)C(=O)OC` showed a melting point of 92 to 93 °C. For `CN1CCC[C@H]1c1cnc(Cl)cc1C(O)(c1ccc(C(C)(C)C)cc1)c1ccc(C(C)(C)C)cc1`, the melting point was 226 to 230 °C. With `Cc1ncc2c(c1C#N)COc1ccccc1C2=O` the melting point was 124 to 126 °C. With `CC[C@H](COC)n1cc(Br)nc(N2CCc3cc(Cl)cc(Cl)c32)c1=O` the melting point was 150 to 152 °C. `O=C(O)c1cc(C#Cc2ccc(C(=O)O)c(C(=O)O)c2)cc(C(=O)O)n1` gave a melting point of over 300 °C. Compound `Cc1csc(NCCN2CCC(Nc3nc4ccccc4n3Cc3ccc(F)cc3)CC2)n1` has a melting point of 184 °C. `CCOC(=O)c1ccc(NCCc2cccc3ccccc23)cc1` gave a melting point of 104 to 106 °C. Work on `COc1cc(CC(=O)Nc2ccc(C3CN(C(=O)CCC(=O)O)CC3C(=O)O)cc2)ccc1NC(=O)Nc1ccccc1C` (stereo not given) yielded a melting point of 184 °C. With `COC(=O)CCc1cc2cc(Cl)ccc2n1S(=O)(=O)c1ccc2c(c1)CCN2C(C)=O` the melting point was 129 °C. `COc1ccc(N2C(=O)C(O[Si](C(C)C)(C(C)C)C(C)C)C2C=Cc2ccco2)cc1` (stereo not given) showed a melting point of 104 to 106 °C. In the case of `O=C1N(N2CCCCC2)c2ccccc2C1(Cc1ccccc1)Cc1ccccc1`, the melting point is reported as 94 to 96 °C. In the case of `Cc1cc(C(=O)Nc2ccccc2)c(C)o1`, the melting point is reported as 92 to 93 °C. In the case of `NS(=O)(=O)c1ccc(-n2nc(C(F)(F)F)cc2-c2ccc([N+](=O)[O-])cc2)cc1`, the melting point is reported as 173 to 175 °C. Work on `CC(C)(C)OC(=O)N1CCCC(c2nc(-c3ccncc3)c(-c3ccc(F)cc3)[nH]2)C1` (stereo not given) yielded a melting point of 193 to 194 °C. With `O=C(NCCCN1CCC(c2ccccn2)CC1)N1C(=O)OCC1c1ccc(F)c(F)c1` (stereo not given) the melting point was 142 to 144 °C. Compound `COC(CC1=C(C#N)C(c2cccc3nonc23)c2c[nH]nc2N1)OC` (stereo not given) has a melting point of 115 °C. `Cc1noc(NS(=O)(=O)c2ccccc2N)c1C` gave a melting point of 116 to 118 °C. `CCCCCCCCn1c(=O)n(CCN2CCN(c3ccccc3OC)CC2)c(=O)c2cscc21` gave a melting point of 82 to 84 °C. `Nc1nc(-n2cc(C(=O)O)c(=O)c3cc(F)c(F)c(Cl)c32)c(Cl)cc1F` showed a melting point of 280 °C. `NC(=O)c1cccc(-c2cccc3sc(Cc4ccc(F)c(F)c4)cc23)c1` gave a melting point of 189 to 190 °C. In the case of `COc1nc(Cl)cc2nccn12`, the melting point is reported as 115 to 118 °C. `Clc1c(Cl)c(Cl)c(CI)c(Cl)c1Cl` showed a melting point of 138 to 140 °C. In the case of `CC(C)(NC(=O)C1=C(C(=O)Nc2cc(OC3CCCC3)c(Cl)cc2F)CCCC1)c1ccc(Br)cc1`, the melting point is reported as 214 to 216 °C. With `Nc1cccc(-c2ccc(CCN3CCN(C(=O)Nc4ccc(Cl)cc4)CC3)cc2)n1` the melting point was 160 to 162 °C. In the case of `CC(O)(Cc1cnc(Cl)s1)c1ccc(Cl)cc1Cl` (stereo not given), the melting point is reported as 164 °C. Work on `Oc1ccc(-c2nn(CC3CCCCC3)c3c(C(F)(F)F)cccc23)c(O)c1` yielded a melting point of 117 to 118 °C. In the case of `CCSc1nsc(NC(=O)N(C)C)c1C#N`, the melting point is reported as 198 °C. Compound `Cc1ccc(C2(O)c3ccccc3C(=O)c3ccccc32)cc1` has a melting point of 203 to 209 °C. For `c1cc2nc3c(n2nc1N1CCCCC1)CCCC3`, the melting point was 184 to 185 °C.
